In PubChem BioAssay AID264 (DTP/NCI, 2004):
Where “and” joins values, the source holds several entries; their conditions need not be identical. Identical values can stand only once. Inconclusive results are not listed.

Test system: nude mice, LX-1 lung xenograft intrarenal, tumor weight T/C
Assay: NCI In Vivo Anticancer Drug Screen. Data for tumor model Human Lung LX-1 Xenograft (intrarenal inoculation) in NU/NU Swiss (nude) mice
Conditions: endpoint: mean tumor weight change, higher = larger tumour
In short: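 Tumor-bearing mice receive test compound or vehicle; tumor size is then measured in each group. The treated value is divided by the vehicle value to give T/C.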

[1] = dose: 100.0 mg/kg/injection, schedule: Q04DX003 (sc), vehicle: Klucel (hydroxypropylcellulose) (HPC)
[2] = dose: 200.0 mg/kg/injection, schedule: Q04DX003 (sc), vehicle: Klucel (hydroxypropylcellulose) (HPC)
[3] = dose: 400.0 mg/kg/injection, schedule: Q04DX003 (sc), vehicle: Klucel (hydroxypropylcellulose) (HPC)
[4] = dose: 100.0 mg/kg/injection, schedule: Q01DX010 (sc), vehicle: saline with Tween-80
[5] = dose: 200.0 mg/kg/injection, schedule: Q01DX010 (sc), vehicle: saline with Tween-80
[6] = dose: 200.0 mg/kg/injection, schedule: Q04DX003 (sc), vehicle: saline with Tween-80
[7] = dose: 400.0 mg/kg/injection, schedule: Q04DX003 (sc), vehicle: saline with Tween-80
[8] = dose: 800.0 mg/kg/injection, schedule: Q04DX003 (sc), vehicle: saline with Tween-80
[9] = dose: 100.0 mg/kg/injection, schedule: Q01DX010 (sc), vehicle: saline
[10] = dose: 200.0 mg/kg/injection, schedule: Q01DX010 (sc), vehicle: saline
[11] = dose: 400.0 mg/kg/injection, schedule: Q01DX010 (sc), vehicle: saline
[12] = dose: 25.0 mg/kg/injection, schedule: Q01DX010 (sc), vehicle: Klucel (hydroxypropylcellulose) (HPC)
[13] = dose: 50.0 mg/kg/injection, schedule: Q01DX010 (sc), vehicle: Klucel (hydroxypropylcellulose) (HPC)
[14] = dose: 100.0 mg/kg/injection, schedule: Q01DX010 (sc), vehicle: Klucel (hydroxypropylcellulose) (HPC)

Q: How did the T/C (dose: 0.25 mg/kg/injection, schedule: Q01DX010 (sc), vehicle: Klucel (hydroxypropylcellulose) (HPC)) turn out when `CC[C@](C)(O)C(=O)O[C@H]1C(=O)O[C@@H]2C[C@H]3C(C)=CC(=O)[C@@H](O)[C@]3(C)[C@H]3[C@@]4(O)OC[C@]32[C@@H]1[C@@H](C)[C@H]4O` was run?
A: 48 % of control

Q: And the T/C (dose: 0.5 mg/kg/injection, schedule: Q01DX010 (sc), vehicle: Klucel (hydroxypropylcellulose) (HPC))?
A: 71 % of control and 92 % of control

Q: What about the T/C (dose: 1.0 mg/kg/injection, schedule: Q01DX010 (sc), vehicle: Klucel (hydroxypropylcellulose) (HPC)) of the same compound?
A: 70 % of control and 75 % of control

Q: And the T/C (dose: 2.0 mg/kg/injection, schedule: Q01DX010 (sc), vehicle: Klucel (hydroxypropylcellulose) (HPC))?
A: 43 % of control and 45 % of control

Q: Which results are given for `CN(C)N=Nc1cccc(C(N)=O)c1`?
A: T/C (dose: 25.0 mg/kg/injection, schedule: Q04DX003 (sc), vehicle: Klucel (hydroxypropylcellulose) (HPC)): 72 % of control; T/C (dose: 50.0 mg/kg/injection, schedule: Q04DX003 (sc), vehicle: Klucel (hydroxypropylcellulose) (HPC)): 47 % of control; T/C [1]: 7 % of control and 15 % of control; T/C [2]: 4 % of control and 29 % of control; T/C [3]: -61 % of control

Q: For `CCCCCCCC(=O)[O][Hg][CH2]C1COC([CH2][Hg][O]C(=O)CCCCCCC)CO1` (stereo unspecified), which T/C (dose: 6.25 mg/kg/injection, schedule: Q01DX010 (sc), vehicle: saline with Tween-80) is on record?
A: 224 % of control

Q: And the T/C (dose: 25.0 mg/kg/injection, schedule: Q01DX010 (sc), vehicle: saline with Tween-80)?
A: 106 % of control

Q: What about the T/C (dose: 50.0 mg/kg/injection, schedule: Q01DX010 (sc), vehicle: saline with Tween-80) of the same compound?
A: 75 % of control and 79 % of control

Q: What about the T/C [4] of the same compound?
A: 61 % of control

Q: What about the T/C [5] of the same compound?
A: 42 % of control

Q: And the T/C (dose: 400.0 mg/kg/injection, schedule: Q01DX010 (sc), vehicle: saline with Tween-80)?
A: 24 % of control

Q: For `Cc1cc2cc3cc(C)c(N)cc3nc2cc1N`, which T/C (dose: 100.0 mg/kg/injection, schedule: Q04DX003 (sc), vehicle: saline with Tween-80) is on record?
A: 77 % of control

Q: And the T/C [6]?
A: 51 % of control

Q: And the T/C [7]?
A: 63 % of control

Q: And the T/C [8]?
A: 95 % of control

Q: What does the source list for `CCC[CH2][Hg][Cl]`?
A: T/C (dose: 18.75 mg/kg/injection, schedule: Q04DX003 (sc), vehicle: Klucel (hydroxypropylcellulose) (HPC)): 69 % of control; T/C (dose: 37.5 mg/kg/injection, schedule: Q04DX003 (sc), vehicle: Klucel (hydroxypropylcellulose) (HPC)): 53 % of control

Q: What does the source list for `CCCC(=O)Nc1ncnc2c1ncn2C1OC2COP(=O)(O)OC2C1OC(=O)CCC` (stereo unspecified)?
A: T/C [9]: 122 % of control; T/C [10]: 92 % of control; T/C [11]: 81 % of control

Q: With `Cc1ccc(C(=O)[O][Hg][CH2]C2COC([CH2][Hg][O]C(=O)c3ccc(C)cc3)CO2)cc1` (stereo unspecified) as the compound, how does the T/C [12] read?
A: 89 % of control

Q: And the T/C [13]?
A: 58 % of control

Q: And the T/C [14]?
A: 112 % of control

Q: And the T/C (dose: 200.0 mg/kg/injection, schedule: Q01DX010 (sc), vehicle: Klucel (hydroxypropylcellulose) (HPC))?
A: 63 % of control

Q: How did the T/C (dose: 50.0 mg/kg/injection, schedule: Q04DX003 (sc), vehicle: suspension in saline) turn out when `[Cl][Pt+2][Cl].[NH-]CC1(C[NH-])CCC1` was run?
A: 121 % of control

Q: With `Cn1cnc([N+](=O)[O-])c1S(=O)(=O)NCN1CCOCC1` as the compound, how does the T/C [12] read?
A: 34 % of control

Q: And the T/C [13]?
A: 67 % of control

Q: And the T/C [14]?
A: 43 % of control

Q: Which T/C (dose: 7.5 mg/kg/injection, schedule: Q04DX003 (sc), vehicle: saline with Tween-80) does the source give for `CN(C)c1ccc(C(=C2C=CC(=[N+](C)C)C=C2)c2ccc(N(C)C)cc2)cc1` (tested in a mixture with another compound) here?
A: 76 % of control

Q: And the T/C (dose: 15.0 mg/kg/injection, schedule: Q04DX003 (sc), vehicle: saline with Tween-80)?
A: 59 % of control

Q: What about the T/C (dose: 30.0 mg/kg/injection, schedule: Q04DX003 (sc), vehicle: saline with Tween-80) of the same compound?
A: 98 % of control

Q: What about the T/C (dose: 60.0 mg/kg/injection, schedule: Q04DX003 (sc), vehicle: saline with Tween-80) of the same compound?
A: 65 % of control

Q: What does the source list for `C[C@]12CC[C@@H]3c4ccc(OC(=O)Cc5ccc(N(CCCl)CCCl)cc5)cc4CC[C@H]3[C@@H]1CC[C@@H]2OC(=O)Cc1ccc(N(CCCl)CCCl)cc1`?
A: T/C [6]: 83 % of control; T/C [7]: 107 % of control; T/C [8]: 116 % of control; T/C (dose: 1600.0 mg/kg/injection, schedule: Q04DX003 (sc), vehicle: saline with Tween-80): 90 % of control

Q: Which results are given for `O=c1ncccn1[C@@H]1O[C@H](CO)[C@H](O)C1O` (stereo partly specified)?
A: T/C (dose: 300.0 mg/kg/injection, schedule: Q04DX003 (sc), vehicle: saline): 100 % of control; T/C (dose: 600.0 mg/kg/injection, schedule: Q04DX003 (sc), vehicle: saline): 56 % of control; T/C (dose: 1200.0 mg/kg/injection, schedule: Q04DX003 (sc), vehicle: saline): 55 % of control; T/C (dose: 2400.0 mg/kg/injection, schedule: Q04DX003 (sc), vehicle: saline): 47 % of control

Q: For `O=C1C(=O)c2ccccc2C(O)=C1CC=C(Cl)Cl`, which T/C (dose: 25.0 mg/kg/injection, schedule: Q01DX010 (sc), vehicle: water) is on record?
A: 255 % of control

Q: And the T/C (dose: 50.0 mg/kg/injection, schedule: Q01DX010 (sc), vehicle: water)?
A: 95 % of control

Q: What about the T/C (dose: 100.0 mg/kg/injection, schedule: Q01DX010 (sc), vehicle: water) of the same compound?
A: 117 % of control

Q: What about the T/C (dose: 200.0 mg/kg/injection, schedule: Q01DX010 (sc), vehicle: water) of the same compound?
A: 158 % of control

Q: How did the T/C (dose: 12.5 mg/kg/injection, schedule: Q01DX010 (sc), vehicle: saline) turn out when `CC1(C)N=C(N)N=C(N)N1c1ccc(CCCCc2ccc(S(=O)(=O)F)cc2Cl)c(Cl)c1` was run?
A: 78 % of control

Q: `CCNC(=O)OCc1c(COC(=O)NCC)c(-c2ccc(Cl)c(Cl)c2)n2c1CCC2` was tested. Which T/C [4] did it give?
A: 26 % of control and 31 % of control

Q: And the T/C [5]?
A: 95 % of control

Q: With `COC1CC(CC2CCC(C)C(C(C)C(=O)O)O2)OC2(OC(C)(C3CCC(C)(C4OC(C5OC(O)(CO)C(C)CC5C)CC4C)O3)CC2C)C1C` (stereo unspecified) as the compound, how does the T/C (dose: 3.75 mg/kg/injection, schedule: Q04DX003 (sc), vehicle: Klucel (hydroxypropylcellulose) (HPC)) read?
A: 110 % of control

Q: What about the T/C (dose: 7.5 mg/kg/injection, schedule: Q04DX003 (sc), vehicle: Klucel (hydroxypropylcellulose) (HPC)) of the same compound?
A: 102 % of control

Q: What about the T/C (dose: 30.0 mg/kg/injection, schedule: Q04DX003 (sc), vehicle: Klucel (hydroxypropylcellulose) (HPC)) of the same compound?
A: 108 % of control

Q: `CCNC(=O)[B-][N+](C)(C)C` was tested. Which T/C [1] did it give?
A: 108 % of control

Q: What about the T/C [2] of the same compound?
A: 73 % of control

Q: What about the T/C [3] of the same compound?
A: 48 % of control

Q: With `O=c1[nH]c(=O)n(C2CC(O)C(CO)O2)cc1C(F)(F)F` (stereo unspecified) as the compound, how does the T/C (dose: 50.0 mg/kg/injection, schedule: Q01DX010 (sc), vehicle: saline) read?
A: 91 % of control

Q: What about the T/C [9] of the same compound?
A: 100 % of control

Q: And the T/C [10]?
A: 51 % of control

Q: What about the T/C [11] of the same compound?
A: 30 % of control

Q: How did the T/C (dose: 6.25 mg/kg/injection, schedule: Q01DX010 (sc), vehicle: saline) turn out when `C[n+]1c2cc(N)ccc2cc2ccc(N)cc21` was run?
A: 72 % of control

Q: Which T/C [8] does the source give for `CCOC(=O)[C@]1(Br)CC[C@@]1(Br)C(=O)OCC` here?
A: 107 % of control

Q: What about the T/C (dose: 1200.0 mg/kg/injection, schedule: Q04DX003 (sc), vehicle: saline with Tween-80) of the same compound?
A: 123 % of control

Q: How did the T/C (dose: 0.13 mg/kg/injection, schedule: Q01DX010 (sc), vehicle: saline) turn out when `COC1=C(N)C(=O)c2nc(-c3nc(C(=O)O)c(C)c(-c4ccc(OC)c(OC)c4O)c3N)ccc2C1=O` was run?
A: 8 % of control

Q: And the T/C (dose: 0.25 mg/kg/injection, schedule: Q01DX010 (sc), vehicle: saline)?
A: 7 % of control and -6 % of control

Q: And the T/C (dose: 1.0 mg/kg/injection, schedule: Q01DX010 (sc), vehicle: saline)?
A: -85 % of control

Q: How did the T/C (dose: 15.0 micrograms/kg/injection, schedule: Q01DX010 (sc), vehicle: saline) turn out when `CSC1SCC2C(=O)N(C)C(C(C)C)C(=O)OCC(NC(=O)c3cnc4ccccc4n3)C(=O)NC(C)C(=O)N(C)C1C(=O)N(C)C(C(C)C)C(=O)OCC(NC(=O)c1cnc3ccccc3n1)C(=O)NC(C)C(=O)N2C` (stereo unspecified) was run?
A: 97 % of control

Q: What about the T/C (dose: 30.0 micrograms/kg/injection, schedule: Q01DX010 (sc), vehicle: saline) of the same compound?
A: 71 % of control

Q: And the T/C (dose: 60.0 micrograms/kg/injection, schedule: Q01DX010 (sc), vehicle: saline)?
A: 48 % of control

Q: What about the T/C (dose: 120.0 micrograms/kg/injection, schedule: Q01DX010 (sc), vehicle: saline) of the same compound?
A: 36 % of control

Q: What about the T/C (dose: 240.0 micrograms/kg/injection, schedule: Q01DX010 (sc), vehicle: saline) of the same compound?
A: 65 % of control

Q: How did the T/C (dose: 300.0 mg/kg/injection, schedule: Q04DX003 (sc), vehicle: saline + alcohol) turn out when `CC(Cc1ccc(O)c(O)c1)C(C)Cc1ccc(O)c(O)c1` (stereo unspecified) was run?
A: 107 % of control

Q: What about the T/C (dose: 600.0 mg/kg/injection, schedule: Q04DX003 (sc), vehicle: saline + alcohol) of the same compound?
A: 90 % of control

Q: What about the T/C (dose: 1200.0 mg/kg/injection, schedule: Q04DX003 (sc), vehicle: saline + alcohol) of the same compound?
A: 104 % of control

Q: What about the T/C (dose: 2400.0 mg/kg/injection, schedule: Q04DX003 (sc), vehicle: saline + alcohol) of the same compound?
A: 66 % of control
